Measured values: patent US9968649B2, “Vasopressin formulations for use in treatment of hypotension” (Par Pharmaceutical, Inc., priority 2015, dated 2018)
Where “and” joins values, the source holds several entries; their conditions need not be identical. Equal entries are not always repeated.

Assay: Effect of temperature on vasopressin formulations: HPLC vasopressin assay and impurities on storage (Example 8)
Assay type: physicochemical
Method: To analyze degradation products of vasopressin that can be present in an illustrative formulation of vasopressin, gradient HPLC was performed to separate vasopressin from related peptides and formulation components. TABLE 2 below depicts the results of the experiment detailing the chemical formula, relative retention time (RRT), molar mass, and structure of vasopressin and detected impurities.
Vasopressin was detected in the eluent using UV absorbance. The concentration of vasopressin in the sample was determined by the external standard method, where the peak area of vasopressin in sample injections was compared to the peak area of vasopressin reference standards in a solution of known concentration. The concentrations of related peptide impurities in the sample were also determined using the external standard method, using the vasopressin reference standard peak area and a unit relative response factor. An impurities marker solution was used to determine the relative retention times of identified related peptides at the time of analysis.
To test the effect of temperature on the stability of vasopressin formulation, solutions containing 20 units/mL vasopressin and chlorobutanol, adjusted to pH 3.5 with acetic acid, were prepared. One mL of each vasopressin formulations was then filled into 3 cc vials. Each Vasopressin Formulation was stored either inverted or upright for at least three months, up to 24 months, at: (i) 5° C.; (ii) 25° C. and 60% relative humidity; or (iii) 40° C. and 75% humidity, and the amount of vasopressin (U/mL) and % total impurities were measured periodically. TABLES 7-12 below display the results of the experiments at 5° C. The results of the experiments at 25° C. are included in TABLES 13-18. All of the experiments were performed in triplicate. The results of the experiments at 40° C. are included in TABLES 19-24. For each temperature tested, three lots of the vasopressin formulation were stored for 24 months (5° C. and 25° C.) and 3 months (40° C.), and measurements were taken at regular intervals during the testing periods. “NMT” as used in the tables denotes “not more than.”
Experiments were also conducted on the same samples above over the course of the experiments to measure the amount of individual impurities in the samples, pH of the samples, chlorobutanol content, particulate matter, antimicrobial effectiveness, and bacterial endotoxin levels (TABLES 25-42). (NR=no reading; ND=not determined; UI=unidentified impurity).

[1] = inverted, 5° C., Initial, listed as AVP
[2] = inverted, 25° C. and 60% Relative Humidity, 3 months, listed as AVP
[3] = inverted, 25° C. and 60% Relative Humidity, 6 months, listed as AVP
[4] = inverted, 25° C. and 60% Relative Humidity, 9 months, listed as AVP
[5] = inverted, 25° C. and 60% Relative Humidity, 12 months, listed as AVP
[6] = inverted, 25° C. and 60% Relative Humidity, 24 months, listed as AVP
[7] = inverted, 25° C. and 60% Relative Humidity, Initial, listed as AVP
[8] = inverted, 40° C. (75% humidity), 1 month
[9] = inverted, 40° C. (75% humidity), 2 months
[10] = inverted, 40° C. (75% humidity), 3 months
[11] = inverted, 40° C. (75% humidity), Initial
[12] = upright, 5° C., 1 month, listed as AVP
[13] = upright, 5° C., 2 months, listed as AVP
[14] = upright, 5° C., 3 months, listed as AVP
[15] = upright, 5° C., 6 months, listed as AVP
[16] = upright, 5° C., 9 months, listed as AVP
[17] = upright, 5° C., 12 months, listed as AVP
[18] = upright, 5° C., 18 months, listed as AVP
[19] = upright, 5° C., 24 months, listed as AVP
[20] = upright, 5° C., Initial, listed as AVP
[21] = upright, 25° C. and 60% Relative Humidity, 3 months, listed as AVP
[22] = upright, 25° C. and 60% Relative Humidity, 6 months, listed as AVP
[23] = upright, 25° C. and 60% Relative Humidity, 9 months, listed as AVP
[24] = upright, 25° C. and 60% Relative Humidity, 12 months, listed as AVP
[25] = upright, 25° C. and 60% Relative Humidity, 18 months, listed as AVP
[26] = upright, 25° C. and 60% Relative Humidity, 24 months, listed as AVP
[27] = upright, 25° C. and 60% Relative Humidity, Initial, listed as AVP

NC(=O)CC[C@@H]1NC(=O)[C@H](Cc2ccccc2)NC(=O)[C@H](Cc2ccc(O)cc2)NC(=O)[C@@H](N)CSSC[C@@H](C(=O)N2CCC[C@H]2C(=O)N[C@@H](CCCN=C(N)N)C(=O)NCC(N)=O)NC(=O)[C@H](CC(N)=O)NC1=O [Vasopressin, Cyclo (1-6) L-Cysteinyl-L-Tyrosyl-L-Phenylalanyl-L-Glutaminyl-L-Asparaginyl-L-Cysteinyl-L-Prolyl-L-Arginyl-L-Glycinamide]
Related Substances: Acetyl-AVP (inverted, 5° C., Initial): 0.3%
Related Substances: Asp5-AVP (inverted, 5° C., Initial): 0.1%
Related Substances: SEQ ID NO.: 2 (inverted, 5° C., Initial): 0.5% and 0.6%
Related Substances: SEQ ID NO.: 4 (inverted, 5° C., Initial): 0.6% and 0.5%
Related Substances: SEQ ID NO.: 10 (inverted, 5° C., Initial): 0.3%
Related Substances: UI-0.75-0.78 (inverted, 5° C., Initial): 0.2%
Related Substances: UI-0.83-0.84 (inverted, 5° C., Initial): 0.1%
Related Substances: UI-1.02-1.03 (inverted, 5° C., Initial): 0.2%
Related Substances: UI-1.03 (inverted, 5° C., Initial): 0.2%
Related Substances: UI-1.85 (inverted, 5° C., Initial): 0.2%
Related Substances: UI-2.05 (inverted, 5° C., Initial): 0.1% and 0.2%
Vasopressin (AVP) Assay (inverted, 5° C., Initial): 19.4 U/mL and 19.7 U/mL
Total Impurities [1]: 2.3% and 2.7% and 2.2%
Vasopressin (AVP) Assay [1]: 19.4 U/mL and 19.7 U/mL
AVP Assay [2]: 19.4 U/mL and 19.7 U/mL and 19.6 U/mL
Total Impurities [2]: 2.4% and 2.5% and 2.6%
AVP Assay [3]: 19.1 U/mL and 19.3 U/mL and 19.2 U/mL
Total Impurities [3]: 3.7% and 3.4% and 3.3%
AVP Assay [4]: 18.8 U/mL and 19 U/mL
Total Impurities [4]: 4.7% and 4.6%
AVP Assay [5]: 18.3 U/mL and 18.6 U/mL and 18.7 U/mL
Total Impurities [5]: 5.9% and 5.6%
Total Impurities (inverted, 25° C. and 60% Relative Humidity, 18 months): 9.0%
AVP Assay (inverted, 25° C. and 60% Relative Humidity, 18 months, listed as AVP): 17.5 U/mL and 17.6 U/mL and 18 U/mL
AVP Assay [6]: 17.3 U/mL and 17.6 U/mL and 17.4 U/mL
Total Impurities [6]: 13.6% and 13.4% and 12.9%
AVP Assay [7]: 19.8 U/mL and 20.1 U/mL and 19.9 U/mL
Total Impurities [7]: 1.1% and 1.3% and 1.5%
Total Impurities [8]: 3.7% and 3.6%
Vasopressin Assay [8]: 19.1 U/mL and 19.3 U/mL and 19.2 U/mL
Total Impurities [9]: 7.3%
Vasopressin Assay [9]: 18.6 U/mL and 18.7 U/mL and 18.3 U/mL
Total Impurities [10]: 10.6% and 10.3%
Vasopressin Assay [10]: 17.3 U/mL and 17.6 U/mL and 17.4 U/mL
Total Impurities [11]: 1.1% and 1.3%
Vasopressin Assay [11]: 19.8 U/mL and 20.1 U/mL and 19.9 U/mL
Related Substances: Acetyl-AVP (inverted, 40° C., 1 month): 0.2%
Related Substances: Asp5-AVP (inverted, 40° C., 1 month): 0.2%
Related Substances: D-Asn-AVP (inverted, 40° C., 1 month): 0.4%
Related Substances: SEQ ID NO.: 2 (inverted, 40° C., 1 month): 1.0%
Related Substances: SEQ ID NO.: 4 (inverted, 40° C., 1 month): 1.1%
Related Substances: UI-0.13 (inverted, 40° C., 1 month): 0.1%
Related Substances: UI-1.02-1.03 (inverted, 40° C., 1 month): 0.3%
Related Substances: UI-1.56-1.57 (inverted, 40° C., 1 month): 0.2%
Related Substances: UI-1.93 (inverted, 40° C., 1 month): 0.1%
Related Substances: Acetyl-AVP (inverted, 40° C., 2 months): 0.2%
Related Substances: Asp5-AVP (inverted, 40° C., 2 months): 0.5%
Related Substances: D-Asn-AVP (inverted, 40° C., 2 months): 0.3%
Related Substances: SEQ ID NO.: 2 (inverted, 40° C., 2 months): 2.4%
Related Substances: SEQ ID NO.: 4 (inverted, 40° C., 2 months): 2.7%
Related Substances: UI-1.02-1.03 (inverted, 40° C., 2 months): 0.2%
Related Substances: UI-1.56-1.57 (inverted, 40° C., 2 months): 0.4%
Related Substances: UI-1.83-1.85 (inverted, 40° C., 2 months): 0.2%
Related Substances: UI-1.87-1.88 (inverted, 40° C., 2 months): 0.2%
Related Substances: UI-2.05-2.08 (inverted, 40° C., 2 months): 0.2%
Related Substances: Acetyl-AVP (inverted, 40° C., 3 months): 0.2%
Related Substances: Asp5-AVP (inverted, 40° C., 3 months): 0.8%
Related Substances: D-Asn-AVP (inverted, 40° C., 3 months): 0.3%
Related Substances: SEQ ID NO.: 2 (inverted, 40° C., 3 months): 3.8%
Related Substances: SEQ ID NO.: 4 (inverted, 40° C., 3 months): 4.3%
Related Substances: UI-1.02-1.03 (inverted, 40° C., 3 months): 0.3%
Related Substances: UI-1.18 (inverted, 40° C., 3 months): 0.2%
Related Substances: UI-1.56-1.57 (inverted, 40° C., 3 months): 0.4%
Related Substances: UI-1.83-1.85 (inverted, 40° C., 3 months): 0.2%
Related Substances: UI-1.87-1.88 (inverted, 40° C., 3 months): 0.2%
Related Substances: Acetyl-AVP (inverted, 40° C., Initial): 0.3%
Related Substances: D-Asn-AVP (inverted, 40° C., Initial): 0.3%
Related Substances: SEQ ID NO.: 2 (inverted, 40° C., Initial): 0.1%
Related Substances: SEQ ID NO.: 4 (inverted, 40° C., Initial): 0.1%
Related Substances: UI-1.02-1.03 (inverted, 40° C., Initial): 0.2%
AVP Assay [12]: 19.5 U/mL and 19.7 U/mL
Total Impurities [12]: 2.1% and 1.8%
AVP Assay [13]: 19.4 U/mL and 19.6 U/mL
Total Impurities [13]: 2.1% and 2.2% and 2.0%
AVP Assay [14]: 19.4 U/mL and 19.7 U/mL
Total Impurities [14]: 2.3% and 2.2%
AVP Assay [15]: 19.5 U/mL and 19.8 U/mL
Total Impurities [15]: 2.1% and 2.2%
AVP Assay [16]: 19.5 U/mL and 19.7 U/mL
Total Impurities [16]: 2.3% and 2.1%
AVP Assay [17]: 19.5 U/mL and 19.8 U/mL and 19.9 U/mL
Total Impurities [17]: 2.5% and 2.6% and 2.4%
AVP Assay [18]: 19.4 U/mL and 19.7 U/mL and 19.8 U/mL
Total Impurities [18]: 2.9% and 2.8%
AVP Assay [19]: 19.3 U/mL and 19.5 U/mL
Total Impurities [19]: 2.9% and 2.8% and 2.7%
AVP Assay [20]: 19.4 U/mL and 19.7 U/mL
Total Impurities [20]: 2.3% and 2.7% and 2.2%
AVP Assay [21]: 19.4 U/mL and 19.7 U/mL and 19.6 U/mL
Total Impurities [21]: 2.4% and 2.5%
AVP Assay [22]: 19.1 U/mL and 19.4 U/mL and 19.2 U/mL
Total Impurities [22]: 3.2% and 3.3% and 3.7%
AVP Assay [23]: 18.8 U/mL and 18.9 U/mL and 19 U/mL
Total Impurities [23]: 4.8% and 4.5% and 4.7%
AVP Assay [24]: 18.3 U/mL and 18.6 U/mL and 18.5 U/mL
Total Impurities [24]: 5.6% and 5.7% and 5.9%
AVP Assay (upright, 25° C. and 60% Relative Humidity, 18 months): 18.1 U/mL
AVP Assay [25]: 17.5 U/mL and 17.8 U/mL
Total Impurities [25]: 9.2% and 9.1%
Total Impurities (upright, 25° C. and 60% Relative Humidity, 24 months): 13.3%
AVP Assay [26]: 17.4 U/mL and 17.7 U/mL
Total Impurities [26]: 13.1%
AVP Assay [27]: 19.8 U/mL and 20.1 U/mL and 19.9 U/mL
Total Impurities [27]: 1.1% and 1.3% and 1.5%
